The text below walks through data of patent US11046954B2, “Targeted protein degradation to attenuate adoptive T-cell therapy associated adverse inflammatory responses” (Dana-Farber Cancer Institute, Inc., priority 2015, dated 2021).

For assay [1], the system named is downstream surrogates of KRAS signaling (e.g. pMEK and pAKT). Description: Immunoblot of NIH3T3 cells expressing FKBP*-KRASG12V: downstream KRAS signaling. To be noted: NIH3T3 FKBP*-KRASG12V; 1 μM, 24 hours. It counts as cell-based. How it is done: (§1) FIG. 19 is an immunoblot of NIH3T3 cells expressing KRASG12V allele fused to FKBP* in the N-terminus or C-terminus. Cells were treated with 500 nM dFKBP7 for the indicated time. Cells were harvested and immunoblotted to measure degradation of FKBP*-KRASG12V and downstream surrogates of KRAS signaling (e.g. pMEK and pAKT).
(§2) FIG. 20 is an immunoblot of NIH3T3 cells expressing FKBP* fused to the N-terminus of KRASG12V treated with luM of the indicated dFKBP heterobifunctional compounds for 24 hours. Cells were harvested and immunoblotted to measure degradation of FKBP*-KRASG12V and downstream surrogates of KRAS signaling (e.g. pMEK and pAKT).
(§3) FIG. 21 is an immunoblot of NIH3T3 cells expressing FKBP* fused to the N-terminus of KRASG12V treated with the indicated concentrations of dFKBP13 for 24 hours. Cells were harvested and immunoblotted to measure degradation of FKBP*-KRASG12V and downstream surrogates of KRAS signaling (e.g. pMEK and pAKT).
(§4) FIG. 22 is an immunoblot of NIH3T3 cells expressing FKBP* fused to the N-terminus of KRASG12V treated with luM dFKBP13 for the indicated time. Cells were harvested and immunoblotted to measure degradation of FKBP*-KRASG12V and downstream surrogates of KRAS signaling (e.g. pMEK and pAKT).
(§5) Cells were treated with 500 nM dFKBP7 for the indicated time. Cells were harvested and immunoblotted to measure degradation of FKBP*-KRAS and downstream surrogates of KRAS signaling (e.g. pMEK and pAKT).
(§6) Western blotting of NIH3T3 cells expressing dTAG-KRASG12V were treated with 1 μM of the indicated dFKBP heterobifunctional compounds for 24 hours. Cells were harvested and immunoblotted to measure degradation of FKBP*-KRAS and downstream surrogates of KRAS signaling (e.g. pMEK and pAKT).
(§7) Western blotting of NIH3T3 cells expressing FKBP* fused to the N-terminus of KRAS treated with the indicated concentrations of dFKBP13 for 24 hours. Cells were harvested and immunoblotted to measure degradation of FKBP*-KRAS and downstream surrogates of KRAS signaling (e.g. pMEK and pAKT).
(§8) To evaluate the kinetic control of targeted degradation of dTAG-KRAS, dFKBP13 was administered by increased duration. Western blotting of NIH3T3 cells expressing FKBP* fused to the N-terminus of KRAS treated with 1 μM dFKBP13 for the indicated time. Cells were harvested and immunoblotted to measure degradation of FKBP*-KRAS and downstream surrogates of KRAS signaling (e.g. pMEK and pAKT).

Assay [2] deals with FKBP*-KRASG12V. Description: Immunoblot of NIH3T3 cells expressing FKBP* fused to KRASG12V: degradation. To be noted: 1 μM, 24 hours. The assay is classed as cell-based. How it is done:
as §1, §2, §3, §4, §5, §6, §7, §8
(In general: In western blotting, separated proteins are transferred to a membrane and probed.)

Regarding `CC[C@H](C(=O)N1CCCC[C@H]1C(=O)O[C@H](CCc1ccc(OC)c(OC)c1)c1cccc(OCC(=O)NCCCCCCCCNC(=O)COc2cccc3c2C(=O)N(C2CCC(=O)NC2=O)C3=O)c1)c1cc(OC)c(OC)c(OC)c1` (some centres unmarked) [dFKBP9], the “inhibition of downstream signaling (pMEK, pAKT)” value in assay [1] was “inhibition of downstream signaling”. Besides, the “degradation of FKBP*-KRASG12V” value in assay [2] is on record as “potent degradation”.
